Series [1] has as its system DSS-induced colitis. Briefly: DSS-induced murine model of colitis. The series is classed as in vivo, C57/B6 mice. The procedure:
Disease activity index (DAI), which positively correlated with the disease severity, was used as a measure for clinical activity. * P<0.05;
(§1) To investigate whether PSMA can be a suitable novel therapeutic target for clinical intervention against IBD, the effect of PSMA prototype inhibitors on three most widely used murine models of IBD was tested, including DNBS-induced colitis, DSS-induced colitis, and IL-10 knockout (IL-10 KO) mice (a genetic model that develops spontaneous colitis). In all three models, PSMA inhibitor treatment dramatically ameliorated symptoms. […] The improvement of these prolapse-retracting mice was unequivocally obvious in that their body weight increased dramatically when compared to that of untreated control IL-10 KO mice (FIG. 21C).

Series [2] concerns EAE. As to conditions: cited from earlier work.
Series [3] concerns the target T1, PSMA (Mus musculus, UniProt O35409).
T1 construct: from tissue; host or cells: colonic or cecal mucosa of C57/B6 mice with DSS-induced colitis
Briefly: PSMA activity in colonic or cecal mucosa of DSS-treated mice. The series is classed as in vivo. As to conditions: DSS-induced colitis, mucosa extract. The procedure:
PSMA activity was measured using extract from mucosa;
as §1

In series [4] the test system is spontaneous colitis in IL-10 KO mice. Put plainly: Spontaneous colitis in IL-10 knockout mice. In kind it is in vivo, IL-10 KO mice (C57/B6). The procedure:
as §1

The conditions of series [5]: cited from earlier work.

SMILES strings stand for the structures. “Also recorded” adds a separate entry of the source. Bounds are passed on as bounds.

T1 sequence (O35409 whole entry): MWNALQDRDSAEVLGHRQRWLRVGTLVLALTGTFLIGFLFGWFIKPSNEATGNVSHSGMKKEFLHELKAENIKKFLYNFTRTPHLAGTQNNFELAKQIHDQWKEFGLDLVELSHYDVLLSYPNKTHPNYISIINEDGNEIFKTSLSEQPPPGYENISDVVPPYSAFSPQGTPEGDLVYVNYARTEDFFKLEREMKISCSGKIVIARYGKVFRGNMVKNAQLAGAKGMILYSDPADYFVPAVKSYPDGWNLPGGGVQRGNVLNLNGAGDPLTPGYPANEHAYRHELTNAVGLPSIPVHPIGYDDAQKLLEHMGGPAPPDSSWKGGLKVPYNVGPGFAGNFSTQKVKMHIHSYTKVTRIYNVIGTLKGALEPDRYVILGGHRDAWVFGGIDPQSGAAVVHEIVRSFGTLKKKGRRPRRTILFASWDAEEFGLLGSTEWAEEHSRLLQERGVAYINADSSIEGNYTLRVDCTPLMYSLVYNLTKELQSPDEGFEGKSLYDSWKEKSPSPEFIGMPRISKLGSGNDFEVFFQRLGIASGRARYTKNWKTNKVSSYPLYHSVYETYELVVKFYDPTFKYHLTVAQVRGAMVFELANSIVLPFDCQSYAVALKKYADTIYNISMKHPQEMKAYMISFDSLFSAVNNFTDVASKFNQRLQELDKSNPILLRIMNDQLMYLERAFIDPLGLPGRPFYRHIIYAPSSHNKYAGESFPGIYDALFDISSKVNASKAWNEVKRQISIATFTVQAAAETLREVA

Turning to `O=C(O)CCC(CP(=O)(O)O)C(=O)O` (stereo not drawn) [Compound 2-PMPA, 2-phosponomethyl pentanedioic acid], the “dose response” value in series [1] (1, 10, and 100 mg/kg i.p., murine IBD models) is “dose dependent effect with 100 mg/kg provided the most benefit”. The “efficacy” value in series [1] (i.p. administration at 100 mg/kg, DSS model) is reported as “excellent efficacy”; in series [4] (i.p. administration at 100 mg/kg, IL 10 knock out model), “excellent efficacy”. For the same compound, in series [2] (EAE mice, Barnes maze), the “cognitive function” value is listed as “improves cognitive function; also recorded: cognition was significantly improved”. Also, the “brain NAAG” value in series [2] (EAE mice, post mortem analysis) is “elevates NAAG; also recorded: significant increase in brain NAAG”. The “physical severity of EAE” value in series [2] (EAE mice) is listed as “no difference in physical severity was observed”. In addition, the “fear conditioning, fear memory” value in series [2] (EAE+2-PMPA vs EAE+Vehicle) is “significant difference between fear memory”. Further, the “PSMA activity in colonic or cecal mucosa” value in series [3] is recorded as “effectively suppresses PSMA activity”. Besides, in series [4] (100 mg/kg for 2 weeks), the “disease severity (macroscopic disease, prolapse), words” value is reported as “not only improvement of disease but even retraction of prolapse; also recorded: significantly reduced the disease severity”. In addition, the “complete retraction of prolapse, share of treated mice” value in series [4] (2 of the 20 mice) stood at 10%. Moreover, the “oral availability F” value in series [5] (2-PMPA itself) is recorded as less than 1%. Further, in series [5] (after 50-100 mg/kg intraperitoneal injection (i.p.) doses), the “concentrations in the brain” value is 30 to 50 µM.

The values above are taken from patent publication US9988407B2, “Prodrugs of prostate specific membrane antigen (PSMA) inhibitor” (THE JOHNS HOPKINS UNIVERSITY, priority 2014, dated 2018).
